According to patent publication US20190352276A1, “INHIBITORS OF BRUTON'S TYROSINE KINASE” (Joint Stock Company "Biocad", priority 2016, published 2019):

Assays:
[1] = General cytotoxicity on HepG2 cells (CC50; therapeutic index CC50 HepG2/IC50 Mino); assay type: cell-based; settings: human, HepG2 cells (hepatocellular carcinoma); Table 10; 72 hours, Alamar Blue; average of several tests
In short: (§1)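 Cells seeded at 2*10^4 per well in DMEM, compounds added after 24 h at 200 μM to 4 μM final and incubated 72 h. Viability read with Alamar Blue to derive CC50; therapeutic index is CC50 (HepG2) divided by IC50 (Mino).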

[2] = system: HepG2 cells (hepatocellular carcinoma); test: as above; assay type: cell-based; settings: Table 10; therapeutic index
In short: as §1

[3] = Permeability through the monolayer of Caco-2 cells; assay type: in vitro ADME; settings: human; for Papp A→B at 2 h, 10 μM / Papp B→A at 2 h, 10 μM: 2 h at 37° C.; for efflux ratio at 2 h, 10 μM: read-out: efflux (Papp B-A/Papp A-B)
Excerpt: Assessment of permeability through the monolayer of Caco-2 cells allows to evaluate the ability of the candidate compounds to penetrate through biological membranes by active and passive transport.
Caco-2, the cells of the intestinal epithelium, had been cultured in transwell plate inserts with the filters (with pores of 0.4 μm, BD Falcon with High Density, #353495) for 21 days, and then the integrity of the monolayer were estimated with Lucifer Yellow dye (Sigma-Aldrich, USA) by standard protocol. When setting the A→B transfer, solutions of test substances were added in a buffer with pH 6.5 (Hanks solution, 10 mM HEPES, 15 mM glucose solution) with the concentration of 10 μM into the upper chamber; the lower chamber was filled with a buffer with pH 7.4 (Hanks solution, 10 mM HEPES, 15 mM glucose solution, 1% BSA). When setting B→A transfer, the upper chamber was filled with the buffer with pH 6.5, and solutions of the test substances were added in the buffer with pH 7.4 at the concentration of 10 μM in the lower chamber. Propranolol was used as a control substance (as it has high permeability).
We used gradient elution (1 mL/min flow rate). We determined the areas of peaks corresponding to the compounds. On the basis of peak areas in the calibration standards we determined the concentration of compound in the initial solution and in the samples from the wells of the upper and lower chambers.
Papp, permeability through the cell layer, was calculated using the following formula:
Papp=(C(t)*V)/(C(0)*t*Area), where
Papp is the effective constant of permeability, m/s V is the volume of solution (0.8 ml in A→B test, 0.2 ml in B→A test), ml Area is the surface area of the membrane (0.33 cm^2), cm^2 t is the time of incubation (7200 sec), sec C(0) is the concentration of the initial solution, μM C(t) is the concentration of the solution after 2 hours (the concentration in the sample from the well of the lower chamber in A→B test; the concentration in the sample from the well of the top chamber in B→A test), μM
The value was calculated with the following formula:
efflux=Papp B-A/Papp A-B, where
Papp A-B is the value of the permeability in the direct test (A→B); Papp B-A is the value of the permeability in the backward test in (B→A).

[4] = Chemical stability in artificial gastric fluid (SGF without enzymes); settings: 10 μM in SGF without enzymes, pH=1.4, 37° C.
[5] = system: Mino (mantle cell lymphoma); test: Antiproliferative activity, Mino cells (Alamar Blue); assay type: cell-based; settings: Homo sapiens, Table 10, 72 h, average of several tests
In short: (§2)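 Cells grown in RPMI-1640 with 10% FBS and gentamicin, seeded ~3*10^4 cells/well, then exposed to compounds (DMSO <1% final) for 72 h at 37 °C, 5% CO2. Viability by Alamar Blue after 14-16 h, fluorescence Ex 540/Em 590 nm; IC50 from four-parameter logistic fit.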

[6] = Stability in human blood plasma; settings: 10 μM in pooled human blood plasma, incubated 4 hours at 37° C.
Protocol: To assess the blood plasma stability of the drug candidates, we used pooled human blood plasma taken from ten healthy donors. The initial solution (10 Mm in DMSO) was diluted with pooled blood plasma to 10 μM (test solution). The test solution had been incubated for 4 hours in a dry block heater at 37° C. We determined peak areas of the compounds corresponding to the start of the test (before incubating) and the end of the test (after incubating in a dry block heater at 37° C.) by HPLC using Agilent1200 chromatograph (Agilent, USA) with preliminary protein precipitation with acetonitrile. We used gradient elution (1 mL/min flow rate). We determined amount of substance in the sample in % after incubation.
We evaluated the stability of the compounds.

[7] = system: Z-138 (mantle cell lymphoma); test: Antiproliferative activity, Z-138 cells (Alamar Blue); assay type: cell-based; settings: Homo sapiens, Table 10, 72 h, average of several tests
In short: as §2

[8] = system: DOHH2 (follicular lymphoma); test: Antiproliferative activity, DOHH2 cells (Alamar Blue); assay type: cell-based; settings: Homo sapiens, DOHH-2, Table 10, 72 h, average of several tests
Protocol: Antiproliferative activity of BTK inhibitors was measured in cell-based bioassay on B-cells cultures: Mino (mantle cell lymphoma, ATCC® CRL-3000™), Z-138 (mantle cell lymphoma, ATCC® CRL-3001™) and DOHH2 (follicular lymphoma, Creative Bioarray CSC-C0219) using cell viability reagent Alamar Blue (Invitrogen, #DAL 1100). Cells were cultured in 10% FB S-supplemented (HyClone, #SH3008803/Gibco, #16140-071) RPMI-1640 (PanEco, #S330p) for at least 1 passage after thawing, washed with PBS and passaged in 96-well culture plates (Corning, #3599) with growth medium with 10% FBS (HyClone, #SH3008803/Gibco, #16140-071) and antibiotic (50 μg/ml of gentamicin (Biolot, #1.3.16))≈3*10^4 cells in 50 μl of medium per well.
The compounds were dissolved in DMSO and diluted with the assay medium to final concentrations ranging from […]. 150 μl of each diluted compound were then added to each well (final concentration of DMSO was less than 1%) and incubated at 37° C. in an incubator under 5% of CO2 for 72 h. After incubation, 20 μl of Alamar Blue reagent (Invitrogen, #DAL1100) were added to each well. The plates were shaked on an orbital shaker (Biosan, Latvia) and then incubated for 14-16 hours at 37° C. in the incubator.
The number of living cells were estimated, measuring the fluorescence signal at the excitation wavelength (REx) of 540 nm and the emission wavelength (λEm) of 590 nm on a microplate reader (Tecan Infinite M200Pro, Switzerland).
For each compound, IC50 was calculated using Magellan 7.2 software (Tecan, Switzerland) approximating experimental points by four-parameter logistic model with the optimization by Levenberg-Marquardt.

[9] = biological target: T1, recombinant Btk kinase enzyme (Homo sapiens, UniProt Q06187); test: In vitro inhibition of Btk kinase activity (ADP-Glo); assay type: biochemical; settings: Table 8; ADP-Glo; read-out: IC50 kinase BTK
T1 construct: purchased SignalChem B10-10H
T1 sequence (Q06187 whole entry): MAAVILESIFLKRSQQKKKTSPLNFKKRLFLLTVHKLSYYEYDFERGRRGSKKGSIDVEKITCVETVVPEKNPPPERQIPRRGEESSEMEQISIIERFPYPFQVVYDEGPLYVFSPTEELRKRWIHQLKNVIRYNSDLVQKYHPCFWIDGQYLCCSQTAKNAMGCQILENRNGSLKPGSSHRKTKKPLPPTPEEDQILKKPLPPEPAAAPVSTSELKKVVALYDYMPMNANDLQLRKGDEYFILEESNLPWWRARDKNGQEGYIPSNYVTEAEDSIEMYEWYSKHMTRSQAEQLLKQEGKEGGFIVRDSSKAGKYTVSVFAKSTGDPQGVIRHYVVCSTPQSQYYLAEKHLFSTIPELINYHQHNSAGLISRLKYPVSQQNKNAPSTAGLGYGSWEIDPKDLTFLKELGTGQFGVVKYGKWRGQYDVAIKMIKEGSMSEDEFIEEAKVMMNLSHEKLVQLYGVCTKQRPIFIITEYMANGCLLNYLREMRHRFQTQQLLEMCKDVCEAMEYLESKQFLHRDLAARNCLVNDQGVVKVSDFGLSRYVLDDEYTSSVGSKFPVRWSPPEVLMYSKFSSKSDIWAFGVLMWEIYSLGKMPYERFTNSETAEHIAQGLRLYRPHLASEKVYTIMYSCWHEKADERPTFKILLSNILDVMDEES
Protocol: To assess Btk kinase activity described herein, SignalChem kinase system was used. Btk kinase activity was determined in the reaction between recombinant Btk kinase enzyme (SignalChem #B10-10H) and Poly (4:1 Glu, Tyr) peptide substrate in the presence of the inhibitor.
Staurosporine (Abcam Biochemicals, ab146588) was used as a reference inhibitor and 0.1% DMSO in the reaction buffer—as a negative control. The solution of 0.5 mg/mL peptide substrate and 50 &M ATP in the same buffer were added; the solution was incubated for 180 minutes at 37° C. To detect the amount of ATP taken up during the kinase reaction, the equivalent amount of ADP (from the ADP Glo Detection Kit (Promega, #V9101)) was used according to the protocol. The reaction mixture was equilibrated to room temperature. 25 µL of ADP-Glo Reagent were added into each well; the plate was incubated for 40 minutes. 50 μL of Kinase Detection Reagent were added; the plate was incubated for 30 minutes. The luminescence was measured with multimode plate reader (Tecan Infinite M200Pro, Switzerland). IC50 values were calculated using Magellan 7.2 software (Tecan, Switzerland) approximating experimental points by four-parameter logistic model with the optimization by Levenberg-Marquardt.

Papp A→B at 2 h, 10 μM [3] | Papp B→A at 2 h, 10 μM [3] | efflux ratio at 2 h, 10 μM [3] | Amount of substance in the sample in % (chemical stability) [4] | IC50 [5] | Amount of substance in the sample, % (stability in human blood plasma) [6] | IC50 [7] | IC50 [8] | IC50 [9] | Structure (SMILES) | CC50 at 72 h [1] | CC50 (HepG2)/IC50 (Mino) [2]
19.2 ×10⁻⁶ cm/s | 3.55 ×10⁻⁶ cm/s | 0.18 | – | 5.67 µM | 94.8% | 17.3 µM | 23 µM | – | C=CC(=O)N1CCC[C@@H](n2nc(-c3ccc(Oc4ccncc4)cc3)c3cncc(F)c32)C1 [BCD-BTK-211, (R)-1-(3-(7-fluoro-3-(4-(pyridin-4-yloxy)phenyl)-1H-pyrazolo[4,3-c]pyridin-1-yl)piperidin-1-yl)prop-2-en-1-one] | 45.2 µM | 7.97
– | – | – | – | – | – | – | – | 0.00628 µM | C=CC(=O)N1CCC[C@@H](n2nc(-c3ccc(Oc4ccncc4)cc3)c3c(N)ncc(C(N)=O)c32)C1 [BCD-BTK-135, (R)-1-(1-acryloylpiperidin-3-yl)-4-amino-3-(4-(pyridin-4-yloxy)phenyl)-1H-pyrazolo[4,3-c]pyridin-7-carboxamide] | – | –
29.6 ×10⁻⁶ cm/s | 8.72 ×10⁻⁶ cm/s | 0.29 | – | 2.14 µM | 80.4% | 12.1 µM | 9.52 µM | – | C=CC(=O)N1CCC[C@@H](n2nc(-c3ccc(Oc4cccnc4C#N)cc3)c3cncc(C#N)c32)C1 [BCD-BTK-216, (R)-1-(1-acryloylpiperidin-3-yl)-3-(4-(2-cyanopyridin-3-yloxy)phenyl)-1H-pyrazolo[4,3-c]pyridine-7-carbonitrile] | 40.1 µM | 18.77

The remaining lines, values behind:

Structure (SMILES) | Papp A→B at 2 h, 10 μM [3] | Papp B→A at 2 h, 10 μM [3] | efflux ratio at 2 h, 10 μM [3] | Amount of substance in the sample in % (chemical stability) [4] | IC50 [5] | Amount of substance in the sample, % (stability in human blood plasma) [6] | IC50 [7] | IC50 [8] | IC50 [9] | CC50 at 72 h [1] | CC50 (HepG2)/IC50 (Mino) [2]
C=CC(=O)N1CCC[C@@H](n2nc(-c3ccc(C(=O)Nc4ncccc4F)cc3)c3cncc(Cl)c32)C1 [BCD-BTK-226, (R)-4-(1-(1-acryloylpiperidin-3-yl)-7-chloro-1H-pyrazolo[4,3-c]pyridin-3-yl)-N-(3-fluoropyridin-2-yl)benzamide] | 12.1 ×10⁻⁶ cm/s | 5.5 ×10⁻⁶ cm/s | 0.45 | 100% | 5.97 µM | 84.5% | 7.24 µM | 8.05 µM | – | 19 µM | 3.19
CC#CC(=O)N1CCC[C@H]1Cn1nc(-c2ccc(Oc3ccncc3)cc2)c2cncc(Cl)c21 [BCD-BTK-259, (S)-1-(2-((7-chloro-3-(4-(pyridin-4-yloxy)phenyl)-1H-pyrazolo[4,3-c]pyridin-1-yl)methyl)pyrrolidin-1-yl)but-2-yn-1-one] | – | – | – | 100% | 16.3 µM | 90.7% | 27.5 µM | 17 µM | – | 47.6 µM | 2.91
C=CC(=O)N1CC[C@H](n2nc(-c3ccc(C(=O)Nc4ccccn4)cc3)c3cncc(Cl)c32)C1 [BCD-BTK-273, (S)-4-(1-(1-acryloylpyrrolidin-3-yl)-7-chloro-1H-pyrazolo[4,3-c]pyridin-3-yl)-N-(pyridin-2-yl)benzamide] | – | – | – | 100% | – | – | – | – | 0.0261 µM | – | –
C=CC(=O)N1CCC[C@@H](n2nc(-c3ccc(C(=O)Nc4cc(C(F)(F)F)ccn4)cc3)c3cncc(C#N)c32)C1 [BCD-BTK-221, 4-{7-cyano-1-[1-(prop-2-enoyl)piperidin-3-yl]-1H-pyrazolo[4,3-c]pyridin-3-yl}-N-[4-(trifluoromethyl)pyridin-2-yl]benzamide] | – | – | – | 91.3% | 10.5 µM | 80.5% | 4.98 µM | 3.05 µM | – | 5.32 µM | 0.51
C=CC(=O)N1CCC[C@@H](n2nc(-c3ccc(Oc4cncc(C(N)=O)c4)cc3)c3cncc(Cl)c32)C1 [BCD-BTK-222, 5-(4-{7-chloro-1-[(3R)-1-(prop-2-enoyl)piperidin-3-yl]-1H-pyrazolo[4,3-c]pyridin-3-yl}phenoxy)pyridine-3-carboxamide] | 5.06 ×10⁻⁶ cm/s | 6.97 ×10⁻⁶ cm/s | 1.38 | 100% | 19.4 µM | 100.0% | 26.3 µM | 26.3 µM | – | 50.2 µM | 2.60
C=CC(=O)N1CCC[C@@H](n2nc(-c3ccc(Oc4ccncc4C#N)cc3)c3cncc(F)c32)C1 [BCD-BTK-217, (R)-4-(4-(1-(1-acryloylpiperidin-3-yl)-7-fluoro-1H-pyrazolo[4,3-c]pyridin-3-yl)phenoxy)nicotinonitrile] | 37.3 ×10⁻⁶ cm/s | 18.9 ×10⁻⁶ cm/s | 0.51 | – | 17.4 µM | 90.8% | 13.9 µM | 16.1 µM | – | 40.1 µM | 2.31
C=CC(=O)N1CCC[C@@H](n2nc(-c3ccc(C(=O)Nc4cc(C(F)(F)CCC)ccn4)cc3)c3cncc(C#N)c32)C1 [BCD-BTK-268, (R)-4-(1-(1-acryloylpiperidin-3-yl)-7-cyano-1H-pyrazolo[4,3-c]pyridin-3-yl)-N-(4-(1,1-difluorobutyl)pyridin-2-yl)benzamide] | – | – | – | 99.3% | 10.3 µM | 91.0% | 78.3 µM | 26.6 µM | – | > 100 µM | >9.69
